Numbers after ± are expanded uncertainties.
Conditions: 298.15 K; 101.33 kPa; Liquid

Row | mass density [kg/m3] | SMILES
1 | 679.627 ± 0.85 | CCCCCCC [heptane]
2 | 726.412 ± 1.6 | CCCCCCCCCC [decane]
3 | 698.636 ± 1.3 | CCCCCCCC [octane]
4 | 714.064 ± 1.3 | CCCCCCCCC [nonane]
5 | 741.54 ± 1.6 | CCCCCCCCCCCC [dodecane]

Row | SMILES | mass density [kg/m3]
6 | Cc1ccccc1N [2-methylaniline] | 994.343 ± 0.24
